Assay results taken from the supplement of paper PMC10307832.

Legend:
Test in all cases: relative viability (nuclei count vs DMSO), 5 days (fraction); higher = more cells survive
NCI-H647 = test system: NCI-H647
Method in brief: (§1)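 After 5 days of treatment, lung cancer cells in 1536-well plates were fixed and stained in a single step (final 0.05% Triton X-100, 1% formaldehyde, 1 ug/ml Hoechst) and their nuclei counted on 4× images. Treatment had been applied by pin tool the day after seeding as one drug alone or as a fixed anchor-drug dose with five library-drug doses (not always all listed) in √10 steps. Relative viability is the nuclei count of treated wells divided by that of vehicle wells, and values are medians of duplicate plates.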

EPLC-272H = test system: EPLC-272H
Method in brief: as §1

SW 1573 = test system: SW 1573
Method in brief: as §1

LCLC-97TM1 = test system: LCLC-97TM1
Method in brief: as §1

PC-3 [JPC-3] = test system: PC-3 [JPC-3]
Method in brief: as §1

HCC-44 = test system: HCC-44
Method in brief: as §1

H3255 = test system: H3255
Method in brief: as §1

BEN = test system: BEN
Method in brief: as §1

NCI-H650 = test system: NCI-H650
Method in brief: as §1

201T = test system: 201T
Method in brief: as §1

NCI-H2170 = test system: NCI-H2170
Method in brief: as §1

NCI-H2085 = test system: NCI-H2085
Method in brief: as §1

NCI-H1437 = test system: NCI-H1437
Method in brief: as §1

NCI-H2342 = test system: NCI-H2342
Method in brief: as §1

NCI-H2087 = test system: NCI-H2087
Method in brief: as §1

LU99A = test system: LU99A
Method in brief: as §1

NCI-H1975 = test system: NCI-H1975
Method in brief: as §1

HCC-827 = test system: HCC-827
Method in brief: as §1

COR-L 105 = test system: COR-L 105
Method in brief: as §1

EKVX = test system: EKVX
Method in brief: as §1

NCI-H1666 = test system: NCI-H1666
Method in brief: as §1

LOU-NH91 = test system: LOU-NH91
Method in brief: as §1

O=c1cc(N2CCOCC2)oc2c(-c3cccc4c3sc3ccccc34)cccc12 + COc1cccc2cc(-c3nc([C@H]4CC[C@H](C(=O)O)CC4)n4ncnc(N)c34)[nH]c12 [OSI-027] (partner 0.5 µM)
relative viability (NCI-H647; first compound 0.01 µM): 0.689
relative viability (NCI-H647; first compound 0.03162 µM): 0.739
relative viability (NCI-H647; first compound 0.1 µM): 0.302
relative viability (NCI-H647; first compound 0.3162 µM): 0.747
relative viability (NCI-H647; first compound 1 µM): 0.745
relative viability (EPLC-272H; first compound 0.01 µM): 0.33
relative viability (EPLC-272H; first compound 0.03162 µM): 0.296
relative viability (EPLC-272H; first compound 0.3162 µM): 0.332
relative viability (EPLC-272H; first compound 1 µM): 0.314
relative viability (SW 1573; first compound 0.01 µM): 0.675
relative viability (SW 1573; first compound 0.03162 µM): 0.709
relative viability (SW 1573; first compound 0.1 µM): 0.678
relative viability (SW 1573; first compound 0.3162 µM): 0.615
relative viability (SW 1573; first compound 1 µM): 0.737
relative viability (LCLC-97TM1; first compound 0.01 µM): 0.583
relative viability (LCLC-97TM1; first compound 0.03162 µM): 0.684
relative viability (LCLC-97TM1; first compound 0.1 µM): 0.491
relative viability (LCLC-97TM1; first compound 0.3162 µM): 0.612
relative viability (LCLC-97TM1; first compound 1 µM): 0.555
relative viability (PC-3 [JPC-3]; first compound 0.01 µM): 0.762
relative viability (PC-3 [JPC-3]; first compound 0.03162 µM): 0.768
relative viability (PC-3 [JPC-3]; first compound 0.1 µM): 0.644
relative viability (PC-3 [JPC-3]; first compound 0.3162 µM): 0.738
relative viability (PC-3 [JPC-3]; first compound 1 µM): 0.825
relative viability (HCC-44; first compound 0.01 µM): 0.524
relative viability (HCC-44; first compound 0.03162 µM): 0.504
relative viability (HCC-44; first compound 0.1 µM): 0.588
relative viability (HCC-44; first compound 0.3162 µM): 0.694
relative viability (HCC-44; first compound 1 µM): 0.463
relative viability (H3255; first compound 0.01 µM): 0.659
relative viability (H3255; first compound 0.03162 µM): 0.503
relative viability (H3255; first compound 0.1 µM): 0.584
relative viability (H3255; first compound 0.3162 µM): 0.668
relative viability (H3255; first compound 1 µM): 0.536
relative viability (BEN; first compound 0.01 µM): 0.304
relative viability (BEN; first compound 0.03162 µM): 0.309
relative viability (BEN; first compound 0.1 µM): 0.302
relative viability (BEN; first compound 0.3162 µM): 0.323
relative viability (BEN; first compound 1 µM): 0.311
relative viability (NCI-H650; first compound 0.03162 µM): 0.591
relative viability (NCI-H650; first compound 0.1 µM): 0.391
relative viability (NCI-H650; first compound 0.3162 µM): 0.598
relative viability (NCI-H650; first compound 1 µM): 0.493
relative viability (201T; first compound 0.01 µM): 0.811
relative viability (201T; first compound 0.03162 µM): 0.832
relative viability (201T; first compound 0.1 µM): 0.715
relative viability (201T; first compound 0.3162 µM): 0.721
relative viability (201T; first compound 1 µM): 0.645
relative viability (NCI-H2170; first compound 0.01 µM): 0.716
relative viability (NCI-H2170; first compound 0.03162 µM): 0.845
relative viability (NCI-H2170; first compound 0.1 µM): 0.716
relative viability (NCI-H2170; first compound 0.3162 µM): 0.716
relative viability (NCI-H2170; first compound 1 µM): 0.716
relative viability (NCI-H2085; first compound 0.01 µM): 0.946
relative viability (NCI-H2085; first compound 0.03162 µM): 0.768
relative viability (NCI-H2085; first compound 0.1 µM): 0.756
relative viability (NCI-H2085; first compound 0.3162 µM): 0.827
relative viability (NCI-H2085; first compound 1 µM): 0.8
relative viability (NCI-H1437; first compound 0.01 µM): 0.907
relative viability (NCI-H1437; first compound 0.03162 µM): 0.848
relative viability (NCI-H1437; first compound 0.1 µM): 0.913
relative viability (NCI-H1437; first compound 0.3162 µM): 0.944
relative viability (NCI-H1437; first compound 1 µM): 0.935
relative viability (NCI-H2342; first compound 0.01 µM): 0.641
relative viability (NCI-H2342; first compound 0.03162 µM): 0.591
relative viability (NCI-H2342; first compound 0.1 µM): 0.652
relative viability (NCI-H2342; first compound 0.3162 µM): 0.715
relative viability (NCI-H2342; first compound 1 µM): 0.533
relative viability (NCI-H2087; first compound 0.01 µM): 0.569
relative viability (NCI-H2087; first compound 0.03162 µM): 0.637
relative viability (NCI-H2087; first compound 0.1 µM): 0.544
relative viability (NCI-H2087; first compound 0.3162 µM): 0.416
relative viability (NCI-H2087; first compound 1 µM): 0.599
relative viability (LU99A; first compound 0.01 µM): 0.277
relative viability (LU99A; first compound 0.03162 µM): 0.337
relative viability (LU99A; first compound 0.1 µM): 0.323
relative viability (LU99A; first compound 0.3162 µM): 0.311
relative viability (LU99A; first compound 1 µM): 0.347
relative viability (NCI-H1975; first compound 0.01 µM): 0.718
relative viability (NCI-H1975; first compound 0.03162 µM): 0.73
relative viability (NCI-H1975; first compound 0.1 µM): 0.792
relative viability (NCI-H1975; first compound 0.3162 µM): 0.874
relative viability (NCI-H1975; first compound 1 µM): 0.752
relative viability (HCC-827; first compound 0.01 µM): 0.853
relative viability (HCC-827; first compound 0.03162 µM): 0.813
relative viability (HCC-827; first compound 0.1 µM): 0.744
relative viability (HCC-827; first compound 0.3162 µM): 0.772
relative viability (HCC-827; first compound 1 µM): 0.791
relative viability (COR-L 105; first compound 0.01 µM): 0.668
relative viability (COR-L 105; first compound 0.03162 µM): 0.825
relative viability (COR-L 105; first compound 0.1 µM): 0.656
relative viability (COR-L 105; first compound 0.3162 µM): 0.786
relative viability (COR-L 105; first compound 1 µM): 0.553
relative viability (EKVX; first compound 0.01 µM): 0.673
relative viability (EKVX; first compound 0.03162 µM): 0.715
relative viability (EKVX; first compound 0.1 µM): 0.659
relative viability (EKVX; first compound 0.3162 µM): 0.719
relative viability (EKVX; first compound 1 µM): 0.749
relative viability (NCI-H1666; first compound 0.01 µM): 0.864
relative viability (NCI-H1666; first compound 0.03162 µM): 0.922
relative viability (NCI-H1666; first compound 0.1 µM): 0.847
relative viability (NCI-H1666; first compound 0.3162 µM): 0.839
relative viability (NCI-H1666; first compound 1 µM): 0.79
relative viability (LOU-NH91; first compound 0.01 µM): 0.68
relative viability (LOU-NH91; first compound 0.03162 µM): 0.754
relative viability (LOU-NH91; first compound 0.1 µM): 0.728
relative viability (LOU-NH91; first compound 0.3162 µM): 0.779
relative viability (LOU-NH91; first compound 1 µM): 0.702
